Laboratory results taken from publication PMC11124870, “Effect of Antioxidants in Medicinal Products on Intestinal Drug Transporters” (Pharmaceutics, 2024).

target: T1, OATP2B1 (Homo sapiens, UniProt O94956); assay: Uptake transporter assay, 3H-estrone sulfate uptake in HEK-293-OATP2B1 cells; details: antioxidant 200 µM; uptake with DMSO set as 100%; mean ± SD, three replicates; HEK-293-OATP2B1 cells
T1 sequence (O94956 1-709): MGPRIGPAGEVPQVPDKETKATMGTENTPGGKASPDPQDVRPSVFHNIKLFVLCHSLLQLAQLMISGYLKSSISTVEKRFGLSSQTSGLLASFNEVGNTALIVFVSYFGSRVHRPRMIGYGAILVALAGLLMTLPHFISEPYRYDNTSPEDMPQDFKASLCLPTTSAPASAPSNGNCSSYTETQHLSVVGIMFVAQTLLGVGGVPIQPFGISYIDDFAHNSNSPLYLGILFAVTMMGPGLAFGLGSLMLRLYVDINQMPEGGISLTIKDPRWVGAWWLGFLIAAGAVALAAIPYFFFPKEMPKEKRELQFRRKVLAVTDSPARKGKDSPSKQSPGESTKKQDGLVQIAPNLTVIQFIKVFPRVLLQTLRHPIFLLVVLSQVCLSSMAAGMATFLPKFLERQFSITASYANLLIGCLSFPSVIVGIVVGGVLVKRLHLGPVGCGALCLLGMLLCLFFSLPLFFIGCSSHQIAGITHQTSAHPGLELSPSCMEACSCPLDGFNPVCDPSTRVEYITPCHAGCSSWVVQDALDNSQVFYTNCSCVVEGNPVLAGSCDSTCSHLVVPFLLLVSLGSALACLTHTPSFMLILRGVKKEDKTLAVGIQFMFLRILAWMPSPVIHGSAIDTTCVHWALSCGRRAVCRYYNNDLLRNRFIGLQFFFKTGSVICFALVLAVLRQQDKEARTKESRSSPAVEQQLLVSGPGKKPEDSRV
Procedure: The uptake transporter assay was performed as reported previously with minor modifications [15]. A day before the uptake assay, Isoplate 96-well plates were coated with poly-D-lysine in PBS with calcium and magnesium and washed with PBS. […] An assay mixture of ^3H-estrone sulfate, a known inhibitor of OATP2B1, or an antioxidant was prepared and incubated in a 37 °C incubator for 10 min. The cells were washed with ice-cold HBSS three times and incubated with MicroScint fluid on a shaker for 1 h for cell lysis. Radioactivity was measured by liquid scintillation counting with a MicroBeta^2® microplate counter. […] On the day of experiment, cells were washed twice with 0.4 mL of HBSS per well and then pre-incubated for 10–20 min in 0.4 mL of HBSS. […] Uptake of ^3H-valsartan was stopped after 15 min by washing three times with ice-cold HBSS. Cells were lysed in 750 µL of lysis buffer (0.1 N NaOH and 0.1% SDS in double-distilled water) per well while shaking for 60 min. A total of 690 µL of the lysate from each well was then added to 2.5 mL of EcoLite scintillation fluid. The radioactivity was determined on a LS6500 Scintillation Counter (Beckman Coulter). Protein concentration was measured with a Pierce™ BCA protein assay kit. The radioactivity in each well was corrected for protein concentration. All values were determined in triplicate, and the final values are expressed as % uptake relative to negative control (1% DMSO).
Antioxidants were screened at a concentration of 200 μM.

Compound | % Uptake of 3H-ES OATP2B1 [%]
O=C1OC(c2ccc(O)c(S(=O)(=O)O)c2)(c2ccc(O)c(S(=O)(=O)O)c2)c2c(Br)c(Br)c(Br)c(Br)c21 [Bromosulfophthalein, reference compound] | 10.9 ± 8.1
Cc1cc(C(C)(C)C)c(O)c(C(C)(C)C)c1 [Butylated hydroxytoluene (BH), Butylated hydroxytoluene] | 137.1 ± 34.8
O=C(O)/C=C/c1ccc(O)c(O)c1 [Caffeic acid] | 119.8 ± 19.8
COc1cc(/C=C/C(=O)O)ccc1O [Ferulic acid] | 136.4 ± 20.7
N[C@@H](CCC(=O)N[C@@H](CS)C(=O)NCC(=O)O)C(=O)O [Glutathione] | 107.9 ± 7.8
NCC(=O)O [Glycine] | 125.6 ± 23.0
C/C=C/C=C/C(=O)[O-].[K+] [Potassium sorbate] | 98.8 ± 19.8
CCCOC(=O)c1cc(O)c(O)c(O)c1 [Propyl gallate] | 79.3 ± 17.2
Vitamin E | 83.5 ± 20.9

same assay, conditions: erlotinib 20 µM; 37 °C, 10 min

Compound | Uptake of 3H-ES in HEK-293 cells expressing OATP2B1 (assay validation)
C#Cc1cccc(Nc2ncnc3cc(OCCOC)c(OCCOC)cc23)c1 [Erlotinib, reference compound] | significantly inhibited

target: T2, P-gp (Homo sapiens, UniProt P08183); assay: Vesicular transport assay, 3H-NMQ uptake in P-gp membrane vesicles; assay type: biochemical; details: antioxidant 200 µM; uptake with DMSO set as 100%; mean ± SD, three replicates; membrane vesicles
T2 construct: purchased ThermoFisher Scientific GM0015; host or cells: Sf9 membrane vesicles
Procedure: (§1) The vesicular transport assay was performed using Spodoptera frugiperda 9 (Sf9) membrane vesicles overexpressing human P-gp or BCRP, as reported previously with minor modifications. In brief, Isoplate 96-well flat-bottom white plates were preincubated with HBSS containing 0.5 mg/mL BSA on an orbital shaker in a 37 °C incubator at 90 rpm for 60 min followed by washing with HBSS. The assay mixture (75 µL/well) contained a probe substrate and either vehicle control, a known inhibitor of P-gp or BCRP, or an antioxidant, in vesicle uptake buffer (50 mM MOPS-Tris, pH 7.0 + 70 mM KCl + 7.5 mM MgCl2) prewarmed to 37 °C. After addition of the assay mixture, 5 μL/well (5 μg/μL stock concentration of the vesicles) of vesicles overexpressing human P-gp or BCRP was added. Uptake assays were initiated by adding 20 μL of either 25 mM adenosine triphosphate (ATP) or 25 mM adenosine monophosphate (AMP) to a final concentration of 5 mM. Plates were incubated at 37 °C for 20 min with orbital shaking (90 rpm). After 20 min, the uptake was quenched by adding 150 μL of ice-cold wash buffer (40 mM MOPS-Tris, pH 7.0 + 70 mM KCl) to each well, and the mixture was transferred to a 96-well filtration plate. Vacuum was applied, and the vesicles were washed three times with wash buffer. Vesicles were then lysed with 100 µL of MicroScint-20.

T2 sequence (P08183 whole entry): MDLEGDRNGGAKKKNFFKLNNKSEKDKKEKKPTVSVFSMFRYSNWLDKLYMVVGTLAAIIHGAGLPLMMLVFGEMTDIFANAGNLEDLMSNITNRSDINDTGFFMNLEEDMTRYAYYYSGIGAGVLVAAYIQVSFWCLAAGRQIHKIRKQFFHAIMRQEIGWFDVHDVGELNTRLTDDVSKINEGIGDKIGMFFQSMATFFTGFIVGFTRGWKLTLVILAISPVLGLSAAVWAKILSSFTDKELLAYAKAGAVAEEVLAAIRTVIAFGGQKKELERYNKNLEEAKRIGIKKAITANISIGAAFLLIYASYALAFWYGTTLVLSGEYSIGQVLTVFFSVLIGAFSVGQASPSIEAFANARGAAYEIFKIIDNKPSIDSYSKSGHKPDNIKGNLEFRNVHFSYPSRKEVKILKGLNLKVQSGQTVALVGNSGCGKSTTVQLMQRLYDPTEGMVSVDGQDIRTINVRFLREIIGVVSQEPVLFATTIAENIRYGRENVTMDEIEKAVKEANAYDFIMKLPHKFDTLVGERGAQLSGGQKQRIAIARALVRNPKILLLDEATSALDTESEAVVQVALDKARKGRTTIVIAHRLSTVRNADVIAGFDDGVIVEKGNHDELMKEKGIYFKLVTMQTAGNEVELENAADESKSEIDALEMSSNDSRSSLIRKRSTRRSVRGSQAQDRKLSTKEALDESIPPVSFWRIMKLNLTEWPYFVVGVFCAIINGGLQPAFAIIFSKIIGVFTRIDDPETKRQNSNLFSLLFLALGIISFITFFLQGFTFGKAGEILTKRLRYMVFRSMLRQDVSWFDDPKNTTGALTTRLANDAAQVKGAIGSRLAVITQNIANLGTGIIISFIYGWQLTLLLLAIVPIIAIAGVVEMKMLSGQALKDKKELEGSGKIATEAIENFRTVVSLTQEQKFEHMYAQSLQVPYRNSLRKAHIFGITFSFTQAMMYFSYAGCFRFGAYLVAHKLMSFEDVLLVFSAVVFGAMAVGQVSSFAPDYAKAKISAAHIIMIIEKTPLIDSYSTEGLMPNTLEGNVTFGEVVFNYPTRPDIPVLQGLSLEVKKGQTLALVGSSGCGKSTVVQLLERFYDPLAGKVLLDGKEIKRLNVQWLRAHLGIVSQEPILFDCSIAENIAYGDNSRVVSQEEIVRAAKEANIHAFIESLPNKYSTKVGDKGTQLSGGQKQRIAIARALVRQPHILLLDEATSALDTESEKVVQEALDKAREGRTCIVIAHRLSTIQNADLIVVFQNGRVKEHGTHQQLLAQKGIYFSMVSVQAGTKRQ

Compound | % Uptake of 3H-NMQ P-gp [%]
O=C(O)CC(O)(CC(=O)O)C(=O)O [Anhydrous citric acid] | 92 ± 2.1
O=C1OC(c2ccc(O)c(S(=O)(=O)O)c2)(c2ccc(O)c(S(=O)(=O)O)c2)c2c(Br)c(Br)c(Br)c(Br)c21 [Bromosulfophthalein, reference compound] | 0.0 ± 22
Cc1cc(C(C)(C)C)c(O)c(C(C)(C)C)c1 [Butylated hydroxytoluene (BH), Butylated hydroxytoluene] | 98.1 ± 20.3
O=C(O)/C=C/c1ccc(O)c(O)c1 [Caffeic acid] | 133.8 ± 12
COc1cc(/C=C/C(=O)CC(=O)/C=C/c2ccc(O)c(OC)c2)ccc1O [Curcumin, reference compound] | 0.0 ± 2.8
O=C([O-])CN(CCN(CC(=O)[O-])CC(=O)O)CC(=O)O.[Na+].[Na+] [EDTA (edetate disodium), edetate disodium] | 69.3 ± 20.5
C#Cc1cccc(Nc2ncnc3cc(OCCOC)c(OCCOC)cc23)c1 [Erlotinib, reference compound] | 63 ± 5
COc1cc(/C=C/C(=O)O)ccc1O [Ferulic acid] | 100.4 ± 16.6
N[C@@H](CCC(=O)N[C@@H](CS)C(=O)NCC(=O)O)C(=O)O [Glutathione] | 79.8 ± 15.8
C/C=C/C=C/C(=O)[O-].[K+] [Potassium sorbate] | 103.5 ± 28.7
CCCOC(=O)c1cc(O)c(O)c(O)c1 [Propyl gallate] | 149.1 ± 67.6
Vitamin E | 67.9 ± 24

target: T3, BCRP (Homo sapiens, UniProt Q9UNQ0); assay: Vesicular transport assay, 3H-CCK8 uptake in BCRP membrane vesicles; assay type: biochemical; parameters: purchased ThermoFisher Scientific GM0008; host or cells: Sf9 membrane vesicles; details: BSP 200 µM with 5 mM ATP; 37 °C, 20 min
T3 sequence (Q9UNQ0 1-655): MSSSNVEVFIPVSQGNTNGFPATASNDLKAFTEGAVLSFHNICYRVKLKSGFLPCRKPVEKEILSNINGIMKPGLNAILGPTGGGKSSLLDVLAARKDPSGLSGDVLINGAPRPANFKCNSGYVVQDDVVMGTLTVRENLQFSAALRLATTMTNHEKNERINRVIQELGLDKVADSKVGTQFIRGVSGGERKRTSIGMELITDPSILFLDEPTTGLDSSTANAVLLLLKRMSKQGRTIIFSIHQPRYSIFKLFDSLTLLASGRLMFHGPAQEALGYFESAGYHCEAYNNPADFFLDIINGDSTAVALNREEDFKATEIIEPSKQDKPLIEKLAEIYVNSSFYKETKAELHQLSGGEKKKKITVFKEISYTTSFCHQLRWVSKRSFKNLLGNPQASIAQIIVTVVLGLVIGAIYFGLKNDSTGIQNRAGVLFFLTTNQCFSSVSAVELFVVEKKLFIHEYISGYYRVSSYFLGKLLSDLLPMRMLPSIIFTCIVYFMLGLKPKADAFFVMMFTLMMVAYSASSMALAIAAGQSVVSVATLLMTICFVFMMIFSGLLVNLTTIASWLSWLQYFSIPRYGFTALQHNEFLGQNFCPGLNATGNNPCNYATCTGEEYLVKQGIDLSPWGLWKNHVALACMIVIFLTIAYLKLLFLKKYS
Procedure: as §1

Compound | Uptake of 3H-CCK8 in BCRP membrane vesicles (assay validation)
O=C1OC(c2ccc(O)c(S(=O)(=O)O)c2)(c2ccc(O)c(S(=O)(=O)O)c2)c2c(Br)c(Br)c(Br)c(Br)c21 [Bromosulfophthalein, reference compound] | significantly reduced the uptake

same assay, conditions: antioxidant 200 µM; uptake with DMSO set as 100%; mean ± SD, three replicates; membrane vesicles

Compound | % Uptake of 3H-CCK8 BCRP [%]
O=C(O)CC(O)(CC(=O)O)C(=O)O [Anhydrous citric acid] | 93.1 ± 6.7
O=C1OC(c2ccc(O)c(S(=O)(=O)O)c2)(c2ccc(O)c(S(=O)(=O)O)c2)c2c(Br)c(Br)c(Br)c(Br)c21 [Bromosulfophthalein, reference compound] | 0.3 ± 1.2
Cc1cc(C(C)(C)C)c(O)c(C(C)(C)C)c1 [Butylated hydroxytoluene (BH), Butylated hydroxytoluene] | 102.8 ± 9.2
O=C(O)/C=C/c1ccc(O)c(O)c1 [Caffeic acid] | 75.8 ± 3.7
COc1cc(/C=C/C(=O)CC(=O)/C=C/c2ccc(O)c(OC)c2)ccc1O [Curcumin, reference compound] | 0.0 ± 1.8
Cl.N[C@@H](CS)C(=O)O [Cysteine hydrochloride] | 90.0 ± 12.5
O=C([O-])CN(CCN(CC(=O)[O-])CC(=O)O)CC(=O)O.[Na+].[Na+] [EDTA (edetate disodium), edetate disodium] | 110.4 ± 24.6
C#Cc1cccc(Nc2ncnc3cc(OCCOC)c(OCCOC)cc23)c1 [Erlotinib, reference compound] | 58.5 ± 3.9
COc1cc(/C=C/C(=O)O)ccc1O [Ferulic acid] | 91.0 ± 4.7
N[C@@H](CCC(=O)N[C@@H](CS)C(=O)NCC(=O)O)C(=O)O [Glutathione] | 95.9 ± 2.2
O=P(O)(O)O [Phosphoric acid] | 83.0 ± 18.0
C/C=C/C=C/C(=O)[O-].[K+] [Potassium sorbate] | 104.8 ± 14.5
CCCOC(=O)c1cc(O)c(O)c(O)c1 [Propyl gallate] | 86.5 ± 2.6
Vitamin E | 81.0 ± 12.6

tested on: OATP2B1, P-gp, and BCRP; assay: not given; details: cited from earlier work

Compound | Inhibition of intestinal transporters, previous assessment
Vitamin E | found not to inhibit these transporters
